{"source": "patent US20220259164A1", "about": "“USE OF AMINOTHIOL COMPOUNDS AS CEREBRAL NERVE OR HEART PROTECTIVE AGENT” (SHANGHAI KECHOW PHARMA, INC., priority 2019, published 2022)", "key": {"[1]": {"assay": "Body weight of cisplatin-induced SD rats", "assay_type": "in vivo, rat", "experimental": "(§1) Healthy male SPF grade SD rats (body weight 250-300 g) were selected. Cisplatin+compound B group: 5 mg/kg i.p.+compound B at 200 mg/kg i.p., with compound B being administered 30 min prior to cisplatin administration Cisplatin+amifostine group: 5 mg/kg i.p.+AMI at 200 mg/kg i.p., with AMI being administered 30 min prior to cisplatin administration Cisplatin+compound A group: 5 mg/kg i.p.+compound A at 800 mg/kg p.o., with compound A being administered 30 min prior to cisplatin administration (1) The SD rats used in the experiment were weighed, labeled, and evenly divided into 5 groups, with 3 SD rats in each group. (2) The compound B, compound A, and AMI groups were respectively administered at the planned concentrations. […] (3) The rats were weighed and recorded daily, and on day 5, blood was taken from the intraocular canthus of the SD rats and placed in an anticoagulant tube."}, "[2]": {"system": "cisplatin-induced nephrotoxicity in SD rats", "assay": "Cisplatin-induced nephrotoxicity in SD rats: blood creatinine and urea nitrogen", "assay_type": "in vivo, rat", "settings": "for Creatinine / Urea nitrogen: whole blood day 5, individual rats", "experimental": "as §1, with “selected. Control group: PBS […]” for “selected.”"}, "[3]": {"system": "rat myocardial infarction model (coronary ligation 30 min, reperfusion)", "assay": "Myocardial infarction model: myocardial infarction range (TTC staining)", "assay_type": "in vivo", "settings": "isosorbide mononitrate injection i.v. 1 mg/kg", "experimental": "(§2) 1. The rats were grouped and administered according to the following methods (2) Compound B (i.v.) at 100 mg/kg (3) Compound A (i.v.) at 100 mg/kg (4) Compound A (oral) at 500 mg/kg (5) Isosorbide mononitrate injection (i.v.) at 1 mg/kg (equivalent to clinical equivalent dose). There were 10 rats in each group, and the rats were administered intravenously immediately after 30 min of ischemia and reperfusion, i.v. 10% 1 min+i.v. drip 90% 30 min. The administration volume was 2 ml/rat. Compound A (oral) at 500 mg/kg was administered intragastrically 2 h after reperfusion when the animal was awake, and the administration volume was 10 ml/kg. Note: Compounds A and B used in this example were in the form of hydrochloride salts thereof. Given intraperitoneal injection of 3% sodium pentobarbital at 60 mg/kg for general anesthesia, the rats were fixed on an operating table in the supine position. The surgical field of the anterolateral chest was depilated and routinely disinfected. The skin and muscular layer were cut open, purse-string suture was performed on the muscular layer, the chest was opened on the left at the fourth intercostal space, and the heart was pulled out with a ring-shaped retractor. At the position of the anterior descending coronary artery 3-4 mm below the left atrial appendage, a 6/0 damage-free silk thread was threaded, and a nylon thread with a diameter of 1.6 mm was juxtaposed and ligated together with the anterior descending coronary artery, while the other end was left outside the body for later use. The heart was placed back into the chest cavity, the air in the chest cavity was emptied, and the chest cavity was closed. 30 min after ligation, the nylon thread was carefully removed for reperfusion. Compared with the normal lead II electrocardiogram (ECG-II), ST segment elevation in ECG-II by 0.1 mV or more 30 min after coronary artery ligation was regarded as successful ischemia."}, "[4]": {"system": "rat myocardial infarction model (coronary ligation 30 min, reperfusion)", "assay": "Myocardial infarction model: myocardial enzyme LDH in serum", "assay_type": "in vivo", "settings": "isosorbide mononitrate injection i.v. 1 mg/kg", "experimental": "as §2, with “ischemia. […] Blood was collected from the rats through the abdominal aorta and centrifuged at 3000 rpm×10 min at 4° C., and the upper serum was taken to determine LDH by enzyme-linked immunosorbent assay.” for “ischemia.”"}, "[5]": {"system": "radiation intestinal injury in C57 male mice", "assay": "Protective effect on radiation intestinal injury (HE staining of small intestine)", "assay_type": "in vivo", "settings": "517 mpk i.p. 30 min before 16 Gy abdominal irradiation; fifth day", "experimental": "(§3) C57 male mice were randomly divided into 4 groups, namely a blank control group, an irradiation group, a compound B (TFA) irradiation group, and an AMI irradiation group, respectively. The mode of administration for each group was an intraperitoneal injection, 30 min before irradiation. The dosage of administration was 517 mpk, and the abdominal irradiation dose was 16 Gy. On the fifth day, the small intestine tissue was taken for HE staining."}, "[6]": {"system": "radiation lung injury in C57 male mice", "assay": "Protective effect on radiation lung injury (HE staining of lung)", "assay_type": "in vivo", "settings": "517 mpk i.p. 30 min before 17 Gy right lung irradiation; months 2, 4, 6", "experimental": "as §3, with “the” for “the abdominal”, “dose to the right lung” for “dose”, “17” for “16”, “[…] Lung tissues were taken at months 2, 4, and 6 for HE staining” for “staining.”"}, "[7]": {"system": "SD rat cerebral ischemia reperfusion injury model (MCAO)", "assay": "TTC staining and cerebral infarction area in rat ischemic stroke model (MCAO)", "assay_type": "in vivo", "settings": "for Cerebral infarction area: individual rats", "experimental": "Healthy male SPF grade SD rats (body weight 250-300 g) were selected. (1) The rats were anesthetized, the skin on the neck was prepared, and the body temperature was maintained at 37±0.5° C. (2) A midline neck incision was made to expose the right common carotid artery, internal carotid artery and external carotid artery. A 6-0 silk thread was used to ligate the distal end of the external carotid artery at 4 mm from the bifurcation of the common carotid artery, another 6-0 silk thread was inserted at the external carotid artery, and a slipknot was tied near the bifurcation of the common carotid artery. (3) An arterial clamp was used to clamp the common carotid artery. A small opening was cut on the external carotid artery at 3 mm from the bifurcation of the common carotid artery, and a 0.33 mm diameter nylon thread with a treated head end was inserted through the small opening, entered the internal carotid artery, and was inserted inward to the middle cerebral artery, wherein the insertion depth of the nylon thread was about 16±1 mm from the bifurcation of the common carotid artery. (4) The thread embolism was removed 90 min after ischemia, the proximal end of the external artery was ligated with a 6-0 silk thread, the neck wound was sutured with a 3-0 silk thread, the wound was disinfected with povidone iodine, the rats were placed on a heating pad, and after being awake, they were placed in a constant temperature rearing box for rearing. […] After the rats were anesthetized, the brain tissues were taken from the rats, placed in a refrigerator and frozen at -20° C. for 30 min. 1% TTC (W/V) was prepared with PBS and placed in a water bath at 37° C. until the TTC was dissolved, and the frozen brain tissue was sliced, placed in 10 ml of the TTC solution and incubated at 37° C. for 10 min. The brain slices were turned from time to time to make the tissue evenly stained. Normal brain tissue was bright red after staining, whereas the infarction region was pale white in color or light white in a black and white image. In addition, a software was used to measure and statistically analyze the infarction area. In a manner same as in Example 1, experimental animals were selected, except that the experiment was divided into seven groups (i.e., groups […], and G, among which groups C, D, and E were given different dosages of administration from Example 1, group F was given edaravone, and group G was given amifostine)."}, "[8]": {"system": "SD rat cerebral ischemia reperfusion injury model (MCAO)", "assay": "Neurobehavioral evaluation (5-point Longa/Bederson score) in rat ischemic stroke model (MCAO)", "assay_type": "in vivo", "design": "key to Neurological function score After modeling: Longa/Bederson 5-point scale (0-4); higher = more severe deficit", "settings": "for Neurological function score After modeling: individual rats", "description": "Healthy male SPF grade SD rats (body weight 250-300 g) were selected. […] (2) A midline neck incision was made to expose the right common carotid artery, internal carotid artery and external carotid artery. A 6-0 silk thread was used to ligate the distal end of the external carotid artery at 4 mm from the bifurcation of the common carotid artery, another 6-0 silk thread was inserted at the external carotid artery, and a slipknot was tied near the bifurcation of the common carotid artery. (3) An arterial clamp was used to clamp the common carotid artery. […] (4) The thread embolism was removed 90 min after ischemia, the proximal end of the external artery was ligated with a 6-0 silk thread, the neck wound was sutured with a 3-0 silk thread, the wound was disinfected with povidone iodine, the rats were placed on a heating pad, and after being awake, they were placed in a constant temperature rearing box for rearing. […] The experimental animals were scored for signs of neurological function deficit before and after modeling. The scoring standard was given by reference to the 5-point system of Longa and Bederson. The scoring was performed 24 h after the animals were awake from anesthesia. The higher the score, the more severe the behavioral disorder of the animals. 0 point: No nerve damage symptoms […] Inability to fully extend the contralateral front paw […] Turning in a circle to the opposite side […] Falling over to the opposite side 4 points: Inability to walk spontaneously, and loss of consciousness In a manner same as in Example 1, experimental animals were selected, except that the experiment was divided into seven groups (i.e., groups […], and G, among which groups C, D, and E were given different dosages of administration from Example 1, group F was given edaravone, and group G was given amifostine)."}, "[9]": {"settings": "Example 2 group G: amifostine 100 mg/kg i.p. 5 min before reperfusion"}, "[10]": {"settings": "amifostine 200 mg/kg i.p. 30 min prior to cisplatin 5 mg/kg i.p."}, "[11]": {"settings": "Example 2 group F: edaravone 3 mg/kg i.v. before reperfusion"}}, "note": "Several values for one entry are separate records, joined by “and”; a condition that tells them apart may be missing. Identical values can stand only once."}
{"smiles": "[NH2][Pt]([NH2])([Cl])[Cl]", "note": "[CDDP, cisplatin, reference compound]", "values": [{"measurement": "Change in body weight", "setting": "[1]; cisplatin alone 5 mg/kg i.p.", "value": "the body weight dropped significantly"}, {"measurement": "Creatinine", "setting": "[2]; cisplatin alone 5 mg/kg i.p.", "value": "58.6 µmol/L and 54.1 µmol/L and 78 µmol/L"}, {"measurement": "Urea nitrogen", "setting": "[2]; cisplatin alone 5 mg/kg i.p.", "value": "18.70 mmol/L and 7.81 mmol/L and 12.9 mmol/L"}]}
{"smiles": "O=[N+]([O-])O[C@@H]1CO[C@H]2[C@@H]1OC[C@@H]2O", "note": "[Isosorbide mononitrate injection, Isosorbide mononitrate, reference compound]", "values": [{"measurement": "Improvement rate (%) of myocardial infarction range", "setting": "[3]; compared with model group", "value": 25.5, "unit": "%"}, {"measurement": "Infarction range (%)", "setting": "[3]; x ± s, n = 10", "value": "30.1 ± 6.7", "unit": "%"}, {"measurement": "Improvement rate (%) of LDH", "setting": "[4]; compared with model group", "value": 22.4, "unit": "%"}, {"measurement": "LDH", "setting": "[4]; serum, x ± s, n = 10", "value": "1472.7 ± 454.5", "unit": "U/L"}]}
{"smiles": "NCCCNCCSP(=O)(O)O", "note": "[amifostine, reference compound]", "values": [{"measurement": "Changes in the intestinal villi structure (HE staining)", "setting": "[5]", "value": "milder than that in the irradiation group"}, {"measurement": "Change in body weight of cisplatin-induced SD rats", "setting": "[1]; 30 min prior to cisplatin 5 mg/kg i.p.: compound B 200 mg/kg i.p., compound A 800 mg/kg p.o., amifostine 200 mg/kg i.p., weighed daily", "value": "the degree of decrease was significantly better than that of the cisplatin group"}, {"measurement": "Inflammatory cell infiltration / radiation pneumonitis in lung (HE staining)", "setting": "[6]", "value": "could partially relieve the inflammatory cell infiltration and reduce the occurrence of radiation pneumonitis"}, {"measurement": "% Improvement of cerebral infarction area", "setting": "[7]; [9]", "value": 23.24, "unit": "%"}, {"measurement": "Cerebral infarction area", "setting": "[7]; [9]", "value": "58.88 mm^3 and 20.71 mm^3 and 0 mm^3 and 244.96 mm^3 and 204.11 mm^3 and 20.31 mm^3"}, {"measurement": "Effect on cisplatin-induced increase of blood creatinine and urea nitrogen (in words)", "setting": "[2]; 30 min prior to cisplatin 5 mg/kg i.p.: compound B 200 mg/kg i.p., compound A 800 mg/kg p.o., amifostine 200 mg/kg i.p., day 5", "value": "significantly reduce the increased blood creatinine and urea nitrogen levels"}, {"measurement": "Creatinine", "setting": "[2]; [10]", "value": "19.8 µmol/L and 38.9 µmol/L and 21.9 µmol/L"}, {"measurement": "Urea nitrogen", "setting": "[2]; [10]", "value": "5.51 mmol/L and 5.34 mmol/L and 5.49 mmol/L"}, {"measurement": "% Behavioral improvement", "setting": "[8]; [9]", "value": 29.32, "unit": "%"}, {"measurement": "Neurological function score After modeling", "setting": "[8]; [9]", "value": "2 (2×) and 1 (2×) and 3 (2×)"}]}
{"smiles": "CC1=NN(c2ccccc2)C(=O)C1", "note": "[edaravone, reference compound]", "values": [{"measurement": "% Improvement of cerebral infarction area", "setting": "[7]; [11]", "value": "58.85% and 58.95%"}, {"measurement": "Cerebral infarction area", "setting": "[7]; [11]", "value": "0 mm^3 (2×) and 10.31 mm^3 and 45.35 mm^3 and 220.66 mm^3 and 17.11 mm^3"}, {"measurement": "% Behavioral improvement", "setting": "[8]; [11]", "value": 46.99, "unit": "%"}, {"measurement": "Neurological function score After modeling", "setting": "[8]; [11]", "value": "1 (4×) and 2 and 3"}]}
